Test results reported in patent US8859541B2, “6-alkynylpyridines” (Boehringer Ingelheim International GmbH, priority 2012, dated 2014).

Biological target: T1, XIAP BIR3 (Homo sapiens, UniProt P98170)
T1 construct: covering amino acids 241 to 356; XIAP BIR3; made in house; host or cells: E. coli
Experiment: XIAP BIR3 binding assay (DELFIA), displacement of SMAC peptide
Settings: GST-fusion BIR3 domain (aa 241 to 356) 10 nM, SMAC peptide 10 nM; activity of the (S)-isomers
Method: Biological Methods XIAP BIR3 and cIAP1 BIR3 Binding Assays (DELFIA)
Peptide […]-Lys(Biotin), representing the N-terminus of mature human SMAC (SMAC peptide), was used as interaction partner in the protein-peptide interaction assay.
BIR3 domains (10 nM) were incubated with SMAC peptide (10 nM) in Assay Buffer (50 mM Tris, 120 mM NaCl, 0.1% BSA, 1 mM DTT, 0.05% TritonX100) for one hour at room temperature in the presence of inhibitiory compounds. The assay mixture was transferred to a strepatvidin coated plate and incubated for one hour at room temperature to allow binding of the biotinylated peptide and associated BIR3 domains to the plate. After several washing steps Eu labeled anti-GST antibody (e.g. Perkin Elmer DELFIA Eu-N1-antiGST AD0250) was added to detect BIR3 domain-SMAC peptide interactions according to Perkin Elmer's instructions. […] Time resolved Europium fluoresecence was measured in a Wallac Victor using Standard assay settings.
DELFIA assay results were plotted against compound concentrations and Software GraphPad Prizm was used to calculate half maximal inhibitory concentrations (IC50 values).

T1 sequence (P98170 241-356): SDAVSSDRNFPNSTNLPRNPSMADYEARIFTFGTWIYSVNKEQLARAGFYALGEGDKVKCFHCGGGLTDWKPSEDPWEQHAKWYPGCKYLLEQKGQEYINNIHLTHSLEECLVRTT

SMILES | IC50
CNC(C)C(=O)Nc1ccc(-c2cc(C(=O)OC)cc([N+](=O)[O-])c2)c(C#Cc2ccccc2)n1 (centres unmarked) [Example 133, methyl 3-[6-[[2-(methylamino)-propanoyl]amino]-2-(2-phenyl-ethynyl)pyridin-3-yl]-5-nitrobenzoate] | 142 nM
CNC(C)C(=O)Nc1ccc(-c2ccc(C)c(C(=O)OC)c2)c(C#Cc2ccccc2)n1 (centres unmarked) [Example 134, methyl 2-methyl-5-[6-[[2-(methylamino)propanoyl]amino]-2-(2-phenylethynyl)pyridin-3-yl]-benzoate] | 581 nM
CC(N)C(=O)Nc1ccc(-c2cccc3cccnc23)c(C#Cc2ccccc2)n1 (centres unmarked) [Example 135, 2-amino-N-[6-(2-phenylethynyl)-5-quinolin-8-ylpyridin-2-yl]-propanamide] | 490 nM
CNC(C)C(=O)Nc1ccc(-c2sc(-c3ccccc3)nc2C)c(C#Cc2ccccc2)n1 (centres unmarked) [Example 136, 2-(methylamino)-N-[5-(4-methyl-2-phenyl-1,3-thiazol-5-yl)-6-(2-phenylethynyl)pyridin-2-yl]-propanamide] | 1040 nM
CNC(C)C(=O)Nc1ccc(-c2cccc3[nH]ncc23)c(C#Cc2ccccc2)n1 (centres unmarked) [Example 137, N-[5-(1H-indazol-4-yl)-6-(2-phenylethynyl)pyridin-2-yl]-2-(methylamino)propanamide] | 155 nM
CNC(C)C(=O)Nc1ccc(-c2cccc(F)c2F)c(C#Cc2ccccc2)n1 (centres unmarked) [Example 139, N-[5-(2,3-difluorophenyl)-6-(2-phenylethynyl)pyridin-2-yl]-2-(methylamino)propanamide] | 1410 nM
CNC(C)C(=O)Nc1ccc(-c2cccc(C(F)(F)F)c2OC)c(C#Cc2ccccc2)n1 (centres unmarked) [Example 140, N-[5-[2-methoxy-3-(trifluoromethyl)phenyl]-6-(2-phenylethynyl)pyridin-2-yl]-2-(methylamino)propanamide] | 1990 nM
CNC(C)C(=O)Nc1ccc(-c2cccc(C(=O)O)c2OC)c(C#Cc2ccccc2)n1 (centres unmarked) [Example 141] | 558 nM
CNC(C)C(=O)Nc1ccc(-c2cccc3c2ccn3C)c(C#Cc2ccccc2)n1 (centres unmarked) [Example 142, 2-(methylamino)-N-[5-(1-methylindol-4-yl)-6-(2-phenyl-ethynyl)pyridin-2-yl]propanamide] | 503 nM
CNC(C)C(=O)Nc1ccc(-c2cccc3ncccc23)c(C#Cc2ccc(C)cc2)n1 (centres unmarked) [Example 143, 2-(methylamino)-N-[6-[2-(4-methylphenyl)ethynyl]-5-quinolin-5-ylpyridin-2-yl]propan-amide] | 388 nM
CNC(C)C(=O)Nc1ccc(-c2cccc3cnccc23)c(C#Cc2ccc(C)cc2)n1 (centres unmarked) [Example 144, N-[5-isoquinolin-5-yl-6-[2-(4-methylphenyl)ethynyl]pyridin-2-yl]-2-(methylamino)propanamide] | 400 nM
CNC(C)C(=O)Nc1ccc(-c2ccc(F)nc2)c(C#Cc2ccccc2)n1 (centres unmarked) [Example 146, N-[5-(6-fluoropyridin-3-yl)-6-(2-phenylethynyl)pyridin-2-yl]-2-(methylamino)propanamide] | 257 nM
CNC(C)C(=O)Nc1ccc(-c2cnccc2C#N)c(C#Cc2ccc(C)cc2)n1 (centres unmarked) [Example 148, N-[5-(4-cyanopyridin-3-yl)-6-[2-(4-methylphenyl)ethynyl]pyridin-2-yl]-2-(methylamino)propan-amide] | 416 nM
CNC(C)C(=O)Nc1ccc(-c2cccc(-c3ccccc3)c2)c(C#Cc2ccccc2)n1 (centres unmarked) [Example 150, 2-(methylamino)-N-[6-(2-phenyl-ethynyl)-5-(3-phenylphenyl)-pyridin-2-yl]propanamide] | 2450 nM
CNC(C)C(=O)Nc1ccc(-c2ccc(C(=O)OC)nc2)c(C#Cc2cc(F)cc(F)c2)n1 (centres unmarked) [Example 151, methyl 5-[2-[2-(3,5-difluorophenyl)ethynyl]-6-[[2-(methylamino)propanoyl]amino]-pyridin-3-yl]pyridine-2-carboxylate] | 326 nM
CNC(C)C(=O)Nc1ccc(-c2ccnc3ccccc23)c(C#Cc2cc(F)cc(F)c2)n1 (centres unmarked) [Example 152, N-[6-[2-(3,5-difluorophenyl)-ethynyl]-5-quinolin-4-ylpyridin-2-yl]-2-(methylamino)propanamide] | 431 nM
CNC(C)C(=O)Nc1ccc(-c2cnccc2OC)c(C#Cc2ccc3cnccc3c2)n1 (centres unmarked) [Example 153, N-[6-(2-isoquinolin-6-ylethynyl)-5-(4-methoxypyridin-3-yl)-pyridin-2-yl]-2-(methylamino)-propanamide] | 1240 nM
CNC(C)C(=O)Nc1ccc(-c2cnccc2OC)c(C#Cc2ccc3ccccc3c2)n1 (centres unmarked) [Example 154, N-[5-(4-methoxypyridin-3-yl)-6-(2-naphthalen-2-ylethynyl)-pyridin-2-yl]-2-(methylamino)-propanamide] | 569 nM

SMILES | IC50
CNC(C)C(=O)Nc1ccc(-c2cnc(N3CCCC3)nc2)c(C#Cc2ccc3ccccc3c2)n1 (centres unmarked) [Example 155, 2-(methylamino)-N-[6-(2-naphthalen-2-ylethynyl)-5-(2-pyrrolidin-1-ylpyrimidin-5-yl)-pyridin-2-yl]propanamide] | 284 nM
CNC(C)C(=O)Nc1ccc(-c2c(-c3ccccc3)noc2C)c(C#Cc2ccc3ccccc3c2)n1 (centres unmarked) [Example 156, 2-(methylamino)-N-[5-(5-methyl-3-phenyl-1,2-oxazol-4-yl)-6-(2-naphthalen-2-ylethynyl)pyridin-2-yl]propanamide] | 3180 nM
CNc1ncc(-c2ccc(NC(=O)C(C)NC)nc2C#Cc2ccc3ccccc3c2)cn1 (centres unmarked) [Example 157, 2-(methylamino)-N-[5-[2-(methylamino)pyrimidin-5-yl]-6-(2-naphthalen-2-ylethynyl)-pyridin-2-yl]propanamide] | 276 nM
CNC(C)C(=O)Nc1ccc(-c2cnc(SC)nc2)c(C#Cc2ccc3ccccc3c2)n1 (centres unmarked) [Example 158, 2-(methylamino)-N-[5-(2-methylsulfanylpyrimidin-5-yl)-6-(2-naphthalen-2-ylethynyl)-pyridin-2-yl]propanamide] | 772 nM
CNC(C)C(=O)Nc1ccc(-c2cncnc2C(C)C)c(C#Cc2ccc3ccccc3c2)n1 (centres unmarked) [Example 159, 2-(methylamino)-N-[6-(2-naphthalen-2-ylethynyl)-5-(4-propan-2-ylpyrimidin-5-yl)-pyridin-2-yl]propanamide] | 767 nM
CNC(C)C(=O)Nc1ccc(-c2cnccc2C#N)c(C#Cc2cc(F)cc(F)c2)n1 (centres unmarked) [Example 160, N-[5-(4-cyanopyridin-3-yl)-6-[2-(3,5-difluorophenyl)ethynyl]-pyridin-2-yl]-2-(methylamino)-propanamide] | 474 nM
CNC(C)C(=O)Nc1ccc(-c2c(F)ccc3ccc(C)nc23)c(C#Cc2ccccc2)n1 (centres unmarked) [Example 162, N-[5-(7-fluoro-2-methylquinolin-8-yl)-6-(2-phenylethynyl)pyridin-2-yl]-2-(methylamino)propan-amide] | 1820 nM
CNC(C)C(=O)Nc1ccc(-c2c(OC)ccc3ccccc23)c(C#Cc2ccccc2)n1 (centres unmarked) [Example 163, N-[5-(2-methoxynaphthalen-1-yl)-6-(2-phenylethynyl)pyridin-2-yl]-2-(methylamino)propanamide] | 4450 nM
CNC(C)C(=O)Nc1ccc(-c2c(C)nn(C)c2C)c(C#Cc2ccc3cnccc3c2)n1 (centres unmarked) [Example 164, N-[6-(2-isoquinolin-6-ylethynyl)-5-(1,3,5-trimethylpyrazol-4-yl)-pyridin-2-yl]-2-(methylamino)-propanamide] | 335 nM
CC(N)C(=O)Nc1ccc(C2CCCC2)c(C#Cc2ccccc2)n1 (centres unmarked) [Example 166, 2-amino-N-[5-cyclopentyl-6-(2-phenylethynyl)pyridin-2-yl]-propan-amide] | 898 nM
CCCc1ccc(NC(=O)C(C)N)nc1C#Cc1ccccc1 (centres unmarked) [Example 167, 2-amino-N-[6-(2-phenylethynyl)-5-propylpyridin-2-yl]propanamide] | 874 nM
CCNC(CC)C(=O)Nc1ccc(-c2cncnc2)c(C#Cc2ccc3ncccc3c2)n1 (centres unmarked) [Example 169, 2-(ethylamino)-N-[5-pyrimidin-5-yl-6-(2-quinolin-6-ylethynyl)pyridin-2-yl]butanamide] | 1150 nM
CCNC(CC)C(=O)Nc1ccc(-c2cncnc2)c(C#Cc2ccc3ncccc3c2)n1 (centres unmarked) [Example 170, 2-(ethylamino)-N-[5-pyrimidin-5-yl-6-(2-quinolin-6-ylethynyl)pyridin-2-yl]-butanamide] | 1370 nM
Cc1noc(C)c1-c1ccc(NC(=O)C(C)NC(C)C)nc1C#Cc1ccccc1 (centres unmarked) [Example 171, N-[5-(3,5-dimethyl-1,2-oxazol-4-yl)-6-(2-phenylethynyl)pyridin-2-yl]-2-(propan-2-ylamino)propanamide] | 1030 nM
CCCNC(C)C(=O)Nc1ccc(-c2c(C)noc2C)c(C#Cc2ccccc2)n1 (centres unmarked) [Example 172, N-[5-(3,5-dimethyl-1,2-oxazol-4-yl)-6-(2-phenylethynyl)-pyridin-2-yl]-2-(propylamino)-propanamide] | 502 nM
CNC(C)C(=O)Nc1ccc(-c2c(C)ncnc2C)c(C#Cc2ccc3ccccc3c2)n1 (centres unmarked) [Example 173, N-[5-(4,6-dimethylpyrimidin-5-yl)-6-(2-naphthalen-2-ylethynyl)pyridin-2-yl]-2-(methylamino)propanamide] | 324 nM
CNC(C)C(=O)Nc1ccc(-c2ccc3c(c2)C(=O)CCC3)c(C#Cc2ccccc2)n1 (centres unmarked) [Example 178, 2-(methylamino)-N-[5-(8-oxo-6,7-dihydro-5H-naphthalen-2-yl)-6-(2-phenylethynyl)pyridin-2-yl]-propanamide] | 214 nM
